Data on 20 compounds can be found in patent publication US20230017532A1 (Hoffmann-La Roche Inc., priority 2018, published 2023).

Counter-ions that a name gives are not always drawn.

The subject of one assay is Acinetobacter baumannii ATCC17978. Description: Antimicrobial susceptibility testing: 90% growth inhibitory concentration (IC90) determination, Iso-Sensitest broth, OD 600 nm. It counts as cell-based. Conditions: Acinetobacter baumannii, ATCC17978, 16 h, 90% growth inhibitory concentration, Acinetobacter baumannii ATCC17978, Iso-Sensitest broth, OD 600 nm over 16 h; read-out: ATCC 17978 IC90. The method, then:
Antimicrobial Susceptibility Testing:
90% Growth Inhibitory Concentration (IC90) Determination
The in vitro antimicrobial activity of the compounds was determined according to the following procedure:
The assay used a 10-points Iso-Sensitest broth medium to measure quantitatively the in vitro activity of the compounds against Acinetobacter baumannii ATCC17978 and Acinetobacter baumannii ATCC17961.
Stock compounds in DMSO were serially twofold diluted (e.g. range from 50 to 0.097 μM final concentration) in 384 wells microtiter plates and inoculated with 49 μl the bacterial suspension in Iso-Sensitest medium to have a final cell concentration of ˜5×10^(5) CFU/ml in a final volume/well of 50 ul/well. Microtiter plates were incubated at 35±2° C.
Bacterial cell growth was determined with the measurement of optical density at λ=600 nm each 20 minutes over a time course of 16 h. Growth inhibition was calculated during the logarithmic growth of the bacterial cells with determination of the concentration inhibiting 50% (IC50) and 90% (IC90) of the growth.
Table 1 provides the 90% growth inhibitory concentrations (IC90) in micromoles per liter of the compounds of present invention obtained against the strain Acinetobacter baumannii ATCC17978 and Acinetobacter baumannii ATCC17961.
As a reminder, the IC90 is the concentration at which the effect reaches the 90% level. `COCC#CCOc1ccc(-c2cnc3c(Nc4ccc(C(=O)NCCOCCN)c(C)c4)nccn23)cc1` [Example 93, N-[2-(2-aminoethoxy)ethyl]-4-[[3-[4-(4-methoxy-but-2-ynoxy)phenyl]imidazo[1,2-a]pyrazin-8-yl]amino]-2-methylbenzamide; formic acid]: the IC90 amounted to 280 nM. Regarding `Cc1cc(Nc2nccn3c(-c4ccc(Cl)cc4)cnc23)ccc1C(=O)NCCNCCN` [Example 117, N-[2-(2-aminoethylamino)ethyl]-4-[[3-(4-chlorophenyl)imidazo[1,2-a]pyrazin-8-yl]amino]-2-methylbenzamide; hydrochloride], the IC90 came to 590 nM.

As for `Cc1cc(Nc2nccn3c(-c4ccc(OC(F)F)cc4)cnc23)ccc1C(=O)NCCOCCN=C(N(C)C)N(C)C` [Example 79, N-[2-[2-[bis (dimethylamino)methylidene-amino]ethoxy]ethyl]-4-[[3-[4-(difluoro-methoxy)phenyl]imidazo [1,2-a]pyrazin-8-yl]amino]-2-methylbenzamide], the IC90 was 1400 nM.

As to `COc1ccc(-c2cnc3c(Nc4ccc(C(=O)NCCOCCN5CCNC(=O)C5)c(C)c4)nccn23)c(F)c1F` [Example 3, 4-[[3-(2,3-difluoro-4-methoxy-phenyl)imidazo[1,2-a]pyrazin-8-yl]amino]-2-methyl-N-[2-[2-(3-oxopiperazin-1-yl)ethoxy]ethyl]benzamide;2,2,2-trifluoroacetic acid], the IC90 stood at 380 nM. Still for that read-out and setting: the same measure for `Cc1cc(Nc2nccn3c(-c4ccc(OC(F)F)cc4)cnc23)ccc1C(=O)NCCOCCN1CCOC(CN)C1` (centres unmarked) [Example 164, N-[2-[2-[2-(aminomethyl)morpholin-4-yl]ethoxy]ethyl]-4-[[3-[4-(difluoro-methoxy)phenyl]imidazo [1,2-a]pyrazin-8-yl]amino]-2-methylbenzamide; hydrochloride]: 970 nM.

For the compound `COc1ccc(-c2cnc3c(Nc4ccc(C(=O)NCCOCCNC(C)=O)c(C)c4)nccn23)cc1` [Example 120, N-[2-(2-acetamidoethoxy)ethyl]-4-[[3-(4-methoxyphenyl)imidazo[1,2-a]pyrazin-8-yl]amino]-2-methylbenzamide], the IC90 amounted to 620 nM. Still for that read-out and setting: for `COc1ccc(-c2cnc3c(Nc4ccc(C(=O)NCCOCCN5CCNCC5)c(Cl)c4)nccn23)c(F)c1F` [Example 1, 2-chloro-4-[[3-(2,3-difluoro-4-methoxyphenyl)imidazo[1,2-a]pyrazin-8-yl]amino]-N-[2-(2-piperazin-1-ylethoxy)ethyl]benzamide;2,2,2-trifluoroacetic acid] the value was 120 nM; for `Cc1cc(Nc2nccn3c(-c4ccc(OC(F)F)cc4)cnc23)ccc1C(=O)NCCOCCS(C)(=O)=O` [Example 132, 4-[[3-[4-(difluoro-methoxy)phenyl]imidazo [1,2-a]pyrazin-8-yl]amino]-2-methyl-N-[2-(2-methylsulfonyl-ethoxy)ethyl] benzamide], 780 nM. Same read-out and setting: for `Cc1cc(Nc2nccn3c(-c4ccc(OC(F)F)cc4)cnc23)ccc1C(=O)NCCOCCOCCOCCOCCO` [Example 155, 4-[[3-[4-(difluoro-methoxy)phenyl]imidazo [1,2-a]pyrazin-8-yl]amino]-N-[2-[2-[2-[2-(2-hydroxyethoxy)ethoxy]ethoxy]ethoxy]ethyl]-2-methylbenzamide] the value was 2300 nM. On to `Cc1cc(Nc2nccn3c(-c4ccc(OC(F)F)cc4)cnc23)ccc1C(=O)NCCOCCOCCOCCO` [Example 152, 4-[[3-[4-(difluoro-methoxy)phenyl]imidazo [1,2-a]pyrazin-8-yl]amino]-N-[2-[2-[2-(2-hydroxyethoxy)ethoxy]ethoxy]ethyl]-2-methylbenzamide], for which the IC90 amounted to 1600 nM. Same read-out and setting: for `COc1ccc(-c2cnc3c(Nc4ccc(C(=O)NCCOCCN5CCNCC5)c(C)c4)nccn23)cc1F` [Example 113, 4-[[3-(3-fluoro-4-methoxyphenyl)imidazo[1,2-a]pyrazin-8-yl]amino]-2-methyl-N-[2-(2-piperazin-1-ylethoxy)ethyl] benzamide; hydrochloride] the value was 580 nM.

For the compound `COc1ccc(-c2cnc3c(Nc4ccc(C(=O)NCCOCCNCC(F)F)c(C)c4)nccn23)cc1` [Example 41, N-(2-(2-((2,2-difluoroethyl)amino)ethoxy)ethyl)-4-((3-(4-methoxyphenyl)imidazo[1,2-a]pyrazin-8-yl)amino)-2-methylbenzamide], the IC90 stood at 450 nM. The same measure, in the same setting: the same measure for `COc1ccc(-c2cnc3c(Nc4ccc(C(=O)NCCOCC(=O)N5CCOC(CN)C5)c(C)c4)nccn23)cc1F` (centres unmarked) [Example 135, N-[2-[2-[2-(aminomethyl)morpholin-4-yl]-2-oxoethoxy]ethyl]-4-[[3-(3-fluoro-4-methoxyphenyl)imidazo[1,2-a]pyrazin-8-yl]amino]-2-methylbenzamide; hydrochloride]: 820 nM. Still for that read-out and setting: the same measure for `COc1ccc(-c2cnc3c(Nc4ccc(C(=O)N(C)CCOCCN5CCS(=O)(=O)CC5)c(C)c4)nccn23)cc1F` [Example 110, N-[2-[2-(1,1-dioxo-1,4-thiazinan-4-yl)ethoxy]ethyl]-4-[[3-(3-fluoro-4-methoxyphenyl)imidazo[1,2-a]pyrazin-8-yl]amino]-N,2-dimethyl-benzamide]: 530 nM; for `Cc1cc(Nc2nccn3c(-c4ccc(Cl)cc4)cnc23)ccc1C(=O)NCCOCCN` [Example 99, N-[2-(2-aminoethoxy)ethyl]-4-[[3-(4-chlorophenyl)imidazo[1,2-a]pyrazin-8-yl]amino]-2-methylbenzamide; hydrochloride]: 440 nM; for `Cc1cc(Nc2nccn3c(-c4ccc(OC(F)F)cc4)cnc23)ccc1C(=O)NCCOCCNC(=O)CO` [Example 119, 4-[[3-[4-(difluoromethoxy)phenyl]imidazo [1,2-a]pyrazin-8-yl]amino]-N-[2-[2-[(2-hydroxyacetyl)amino]ethoxy]ethyl]-2-methylbenzamide]: 610 nM.

Staying with this assay, now noted: Acinetobacter baumannii, ATCC17978, 16 h, read-out: ATCC 17978 IC90.
`COc1ccc(-c2cnc3c(Nc4cc(F)c(C(=O)NCCOCCN)c(Cl)c4)nccn23)c(F)c1F` [Example 60, dihydrochloride]: the IC90 was determined as 91 nM. On the same count and under the same terms, for `CC#CCOc1ccc(-c2cnc3c(Nc4ccc(C(=O)NCCOCCN)c(C)c4)nccn23)cc1` [Example 67, N-[2-(2-aminoethoxy)ethyl]-4-[[3-(4-but-2-ynoxyphenyl)imidazo[1,2-a]pyrazin-8-yl]amino]-2-methyl-benzamide; 2,2,2-trifluoroacetic acid] the value was 230 nM; for `CCc1cc(Nc2nccn3c(-c4ccc(OC(F)F)c(F)c4F)cnc23)ccc1C(=O)NCCOCCO[C@H]1O[C@H](CO)[C@H](O)[C@H](O)[C@H]1O` [Example 194, 4-((3-(4-(difluoro-methoxy)-2,3-difluorophenyl)imidazo[1,2-a]pyrazin-8-yl)amino)-2-ethyl-N-(2-(2-(((2S,3R, 4S,5R,6R)-3,4,5-trihydroxy-6-(hydroxymethyl)tetrahydro-2H-pyran-2-yl)oxy)ethoxy)ethyl) benzamide formate], 350 nM; for `COc1ccc(-c2cnc3c(Nc4ccc(C(=O)NCCOCCN)c(CC(F)F)c4)nccn23)c(F)c1F` [Example 75, N-[2-(2-aminoethoxy)ethyl]-2-(2,2-difluoroethyl)-4-[[3-(2,3-difluoro-4-methoxy-phenyl)imidazo[1,2-a]pyrazin-8-yl]amino]benzamide; formic acid], 160 nM.
